Here are results for 76 compounds from patent publication US8999956B2, “N-[(het)arylalkyl)] pyrazole(thio)carboxamides and their heterosubstituted analogues” (Bayer Intellectual Property GmbH, priority 2010, dated 2015).

This series in a line: log P by HPLC on reversed-phase column (EEC Directive 79/831 Annex V.A8). It counts as physicochemical. On the procedure:
In table 1, the log P values were determined in accordance with EEC Directive 79/831 Annex V.A8 by HPLC (High Performance Liquid Chromatography) on a reversed-phase column (C18), using the method described below: Temperature: 40° C.; […]

Molecules are shown by their SMILES. Read-outs that look alike come from different tables or passages of the source.

The compound `CCCN(C(=O)c1c(C(F)F)nn(C)c1F)C(C)COc1ccccc1-c1ccccc1` (stereo not shown) [Example 30] registered a logP of 4.32. Compound `CC(CCc1ncc(C(F)(F)F)cc1Cl)N(C(=O)c1c(C(F)F)nn(C)c1Cl)C1CC1` (stereo not shown) [Example 85] showed a logP of 4.11. Same read-out and setting: the result for `Cn1nc(C(F)F)c(C(=O)NCCS(=O)(=O)c2ccc(Cl)cc2)c1F` [Example 58] reads 2.10; that for `CCCCCCC1CCCCC1NC(=S)c1c(C(F)F)nn(C)c1F` (stereo not shown) [Example 327], 5.81; that for `CCCN(CCOc1ccc(Cl)cc1)C(=O)c1c(C(F)F)nn(C)c1Cl` [Example 54], 3.67. Still for that read-out and setting: the result for `Cn1nc(C(F)F)c(C(=O)NCC#Cc2ccco2)c1F` [Example 280] reads 2.14. On the same count and under the same terms, the result for `CN(CCCc1cc2ccccc2s1)C(=O)c1c(C(F)F)nn(C)c1F` [Example 96] reads 3.25; that for `Cn1nc(C(F)F)c(C(=O)N(C2CC2)C2CCCC2C2CCCC2)c1Cl` (stereo not shown) [Example 369], 4.83; that for `CCCN(CCOc1c(Cl)cc(Cl)cc1Cl)C(=O)c1c(C(F)F)nn(C)c1F` [Example 204], 4.37. The compound `Cn1nc(C(F)F)c(C(=O)N(CCCC2CCCO2)C2CC2)c1F` (stereo not shown) [Example 114] gave a logP of 2.21.

`CCCC1CCCCC1NC(=S)c1c(C(F)F)nn(C)c1F` (stereo not shown) [Example 345] returned a logP of 4.21. Same read-out and setting: the result for `CC(CCc1ncc(C(F)(F)F)cc1Cl)N(C)C(=O)c1c(C(F)F)nn(C)c1Cl` (stereo not shown) [Example 88] reads 3.45; that for `CN(C(=O)c1c(C(F)F)nn(C)c1Cl)C1CCCCC1Cc1ccccc1` (stereo not shown) [Example 254], 3.87. The same measure, in the same setting: to `CC(CSCc1ccco1)N(C(=O)c1c(C(F)F)nn(C)c1Cl)C1CC1` (stereo not shown) [Example 237] belongs 3.27. The same measure, in the same setting: the result for `CC#CC1(NC(=O)c2c(C(F)F)nn(C)c2Cl)CCCCC1` [Example 383] reads 3.11.

Compound `Cc1ccc2sc(CCCN(C(=O)c3c(C(F)F)nn(C)c3F)C3CC3)cc2c1` [Example 106] had a logP of 4.21. The compound `C=CCC1CCCCC1N(C(=O)c1c(C(F)F)nn(C)c1F)C1CC1` (stereo not shown) [Example 346] returned a logP of 3.94. Still for that read-out and setting: to `CCCN(CCCOc1c(C)cc(C)cc1C)C(=O)c1c(C(F)F)nn(C)c1Cl` [Example 234] belongs 4.39; to `Cn1nc(C(F)F)c(C(=O)N(C2CC2)C2CCCCC2C2=CCCCC2)c1Cl` (stereo not shown) [Example 377], 5.17. Consider `CC(CCc1ncc(C(F)(F)F)cc1Cl)N(C)C(=O)c1c(C(F)F)nn(C)c1F` (stereo not shown) [Example 87], for which the logP is listed as 3.29.

For `Cn1nc(C(F)F)c(C(=O)NCCCc2cc3ccccc3s2)c1F` [Example 95], the logP is 3.17. Still for that read-out and setting: to `Cn1nc(C(F)F)c(C(=O)N(CCOc2c(Cl)cc(Cl)cc2Cl)C2CCCC2)c1F` [Example 209] belongs 5.08. The same measure, in the same setting: the result for `CN(CCC(=O)Nc1ccc(Cl)c(Cl)c1)C(=O)c1c(C(F)F)nn(C)c1F` [Example 232] reads 2.71; that for `Cn1nc(C(F)F)c(C(=O)N(CCOc2ccc(Cl)cc2)C2CCCC2)c1F` [Example 55], 4.13. Still for that read-out and setting: to `Cn1nc(C(F)F)c(C(=O)N(CCOc2ccc(Cl)cc2)C2CCC2)c1F` [Example 50] belongs 3.78. In turn, `CCCN(CCOc1ccc(C(=O)OCC)cc1)C(=O)c1c(C(F)F)nn(C)c1Cl` [Example 72] displayed a logP of 3.44. The same measure, in the same setting: to `CN(CCN(C)C(=O)c1c(C(F)F)nn(C)c1Cl)C(=O)c1ccccc1` [Example 231] belongs 1.76. The same measure, in the same setting: to `CN(CC(=O)OCc1ccccc1)C(=O)c1c(C(F)F)nn(C)c1Cl` [Example 228] belongs 2.57; to `CN(CC(=O)OCc1ccccc1)C(=O)c1c(C(F)F)nn(C)c1F` [Example 226], 2.44.

Take `Cn1nc(C(F)F)c(C(=O)NC(C)(C)C(=O)Nc2ccccc2)c1F` [Example 24]: the logP was 2.10. The same measure, in the same setting: to `Cn1nc(C(F)F)c(C(=O)NCCOc2c(Cl)cc(Cl)cc2Cl)c1Cl` [Example 201] belongs 3.80; to `CC(C)C(C(=O)OCc1ccccc1)N(C)C(=O)c1c(C(F)F)nn(C)c1F` (stereo not shown) [Example 227], 3.35; to `Cc1ccsc1C#CCN(C(=O)c1c(C(F)F)nn(C)c1F)C1CC1` [Example 283], 3.31. The same measure, in the same setting: the result for `C#CC1(NC(=O)c2c(C(F)F)nn(C)c2Cl)CCCCC1` [Example 384] reads 2.73.

Regarding `CC(C)N(CC(=O)Nc1ccccc1)C(=O)c1c(C(F)F)nn(C)c1F` [Example 1], the logP was 2.25.

For `CN(C(=O)c1c(C(F)F)nn(C)c1Cl)C(COc1ccccc1Cl)C1CC1` (racemic) [Example 146], the logP stood at 3.67. Still for that read-out and setting: to `Cn1nc(C(F)F)c(C(=O)N(CC#Cc2cccs2)C2CC2)c1F` [Example 282] belongs 3.00; to `CC(O)C1CCCCC1NC(=O)c1c(C(F)F)nn(C)c1F` (single isomer, unassigned) [Example 342], 2.08 isomer B. The same measure, in the same setting: to `CN(CC#Cc1ccccc1)C(=O)c1c(C(F)F)nn(C)c1Cl` [Example 270] belongs 2.92. On the same count and under the same terms, the result for `COCCCCNC(=O)c1c(C(F)F)nn(C)c1F` [Example 305] reads 1.40.

As to `CC1CCCC(Cc2cccc(Cl)c2)C1NC(=O)c1c(C(F)F)nn(C)c1Cl` (stereo not shown) [Example 80], the logP (HPLC on reversed-phase column (C18), 40° C., 0.1% aqueous formic acid and acetonitrile, linear gradient 10% to 90% acetonitrile) is given as 4.51. With `CC(COc1ccccc1)N(C)C(=O)c1c(C(F)F)nn(C)c1Cl` (stereo not shown) [Example 15], the logP is recorded as 2.78. On the same count and under the same terms, the result for `CN(CCCc1ccco1)C(=O)c1c(C(F)F)nn(C)c1F` [Example 101] reads 2.25. Take `Cn1nc(C(F)F)c(C(=O)N(CCCc2cc3ccccc3s2)C2CC2)c1F` [Example 94]: the logP is given as 3.79. Regarding `CC(C)(C)C#Cc1cccc(N)c1` [3-(3,3-dimethylbut-1-yn-1-yl)aniline], the chromatographic logP (reversed-phase HPLC column (C18), HPLC, 0.1% aqueous formic acid and acetonitrile, 40° C., read-out: log P) amounted to 2.71. `Cn1nc(C(F)F)c(C(=O)NC(C)(C)C(=O)Nc2ccccc2)c1Cl` [Example 25] came in with a logP of 2.27. Still for that read-out and setting: to `CCN(C(=O)c1c(C(F)F)nn(C)c1Cl)C(C)COc1ccc(C)cc1` (stereo not shown) [Example 39] belongs 3.48. Same read-out and setting: to `Cn1nc(C(F)F)c(C(=O)N(CCCC2CC=CO2)C2CC2)c1F` (stereo not shown) [Example 98] belongs 1.45.

On to `Cn1nc(C(F)F)c(C(=O)N(CCOc2ccc(Cl)cc2)C2CCC2)c1Cl` [Example 52], for which the logP was determined as 3.99. Same read-out and setting: the result for `CN(CC=Cc1ccccc1)C(=O)c1c(C(F)F)nn(C)c1Cl` [Example 261] reads 2.84.

On to `CN(CCCc1cc2ccccc2o1)C(=O)c1c(C(F)F)nn(C)c1F` [Example 93], for which the logP came to 3.00. The same measure, in the same setting: to `Cn1nc(C(F)F)c(C(=O)NC(CSc2ccccc2)C2CC2)c1Cl` (stereo not shown) [Example 23] belongs 3.44. `CON(CCC(C)c1ccc(C)o1)C(=O)c1c(C(F)F)nn(C)c1Cl` (stereo not shown) [Example 111] yielded a logP of 3.29. Take `CCCN(CCOc1c(Cl)cc(Cl)cc1Cl)C(=O)c1c(C(F)F)nn(C)c1Cl` [Example 205]: the logP turned out to be 4.56.

For `Cn1nc(C(F)F)c(C(=O)N(CCOc2ccc(Cl)cc2)C2CCCC2)c1Cl` [Example 51], the logP is 4.32. The same measure, in the same setting: the result for `CCC(CCc1sccc1Br)NC(=O)c1c(C(F)F)nn(C)c1Cl` (stereo not shown) [Example 90] reads 3.63.

In turn, `Cc1ccc(C(C)CCN(C(=O)c2c(C(F)F)nn(C)c2F)C2CC2)o1` (stereo not shown) [Example 107] came in with a logP of 3.41. On the same count and under the same terms, to `Cn1nc(C(F)F)c(C(=O)N(CCCc2cccs2)C2CC2)c1F` [Example 102] belongs 3.04. The same measure, in the same setting: the result for `CN(CCCc1cccs1)C(=O)c1c(C(F)F)nn(C)c1F` [Example 104] reads 2.52; that for `CC(CC1CCCCC1)N(C(=O)c1c(C(F)F)nn(C)c1Cl)C1CC1` (stereo not shown) [Example 371], 4.56. The compound `Cn1nc(C(F)F)c(C(=O)N(CC#Cc2ccccc2)C(C)(C)C)c1Cl` [Example 268] showed a logP of 3.96. On the same count and under the same terms, to `Cn1nc(C(F)F)c(C(=O)N(CC#Cc2cc3ccccc3s2)C2CC2)c1F` [Example 276] belongs 3.85.

In turn, `CC(CCc1cccs1)N(C(=O)c1c(C(F)F)nn(C)c1Cl)C1CC1` (stereo not shown) [Example 103] registered a logP of 3.57. Still for that read-out and setting: the result for `CN(C(=O)c1c(C(F)F)nn(C)c1F)C1CCCCC1Cc1ccccc1` (stereo not shown) [Example 253] reads 3.72.

`Cn1nc(C(F)F)c(C(=O)NCCOc2ccc(-c3ccccc3)cc2)c1Cl` [Example 26] returned a logP of 3.60.

`CCC1(C)CC(NC(=O)c2c(C(F)F)nn(C)c2F)CC(C)(C)C1` (stereo not shown) [Example 363] displayed a logP of 4.23. The same measure, in the same setting: the result for `Cn1nc(C(F)F)c(C(=O)N(CCCc2cc3ccccc3o2)C2CC2)c1F` [Example 91] reads 3.52. The same measure, in the same setting: to `Cn1nc(C(F)F)c(C(=S)NC2CCCC2CCC(C)(C)C)c1F` (stereo not shown) [Example 321] belongs 5.01.

`CON(CCC(C)c1ccc(C)o1)C(=O)c1c(C(F)F)nn(C)c1F` (stereo not shown) [Example 112] yielded a logP of 3.23.

Regarding `Cn1nc(C(F)F)c(C(=O)NC2(C(F)(F)F)CCCCC2)c1F` [Example 387], the logP is 3.00. On the same count and under the same terms, to `CCC1(C)CC(NC(=O)c2c(C(F)F)nn(C)c2Cl)CC(C)(C)C1` (stereo not shown) [Example 362] belongs 4.44; to `Cn1nc(C(F)F)c(C(=O)NCCOc2cc(Cl)cc(Cl)c2)c1Cl` [Example 118], 3.55; to `CCCCC1CCCC1NC(=S)c1c(C(F)F)nn(C)c1F` (stereo not shown) [Example 308], 4.39. The same measure, in the same setting: to `Cc1ccsc1CCCN(C(=O)c1c(C(F)F)nn(C)c1F)C1CC1` [Example 105] belongs 3.33; to `Cn1nc(C(F)F)c(C(=O)N(CC#Cc2cc3ccccc3o2)C2CC2)c1F` [Example 275], 3.55; to `Cn1nc(C(F)F)c(C(=O)NC(C)(C)CCc2ccc(Cl)c(Cl)c2)c1Cl` [Example 133], 4.44.
